{"source": "patent US8323669B2", "about": "“Polymer conjugate of taxane” (priority 2006, dated 2012)", "type_in_all_cases": "in vivo, mouse (female CDF1 mice)", "key": {"[1]": {"system": "Mouse colon cancer, Colon26", "assay": "Antitumor effect of compounds 2 and 3 (Test Example 4)", "conditions": "single i.v. at maximum tolerance dose (conjugates 200 mg/kg as DTX, DTX 100 mg/kg)", "excerpt": "Mouse colon cancer, Colon26, maintained by serial subcutaneous subculture in mice was minced into about 2-mm square fragments, and the fragments were subcutaneously transplanted on the dorsal part of female CDF1 mice with a trocar. Seven days after tumor transplantation, the polymer conjugates of the present invention (compound 2 and compound 3) and the control drug (docetaxel, DTX) were each intravenously administered once to the mouse tail vein at the respective maximum tolerance dose. The compound 2 and compound 3 were dissolved in 5% glucose solution for injection to a level for the use at a dose of 200 mg/kg as DTX. DTX to be used was prepared by dissolving a commercially available Taxotere injection (for 100 mg/kg use) in a vehicle solution attached to the product, and diluting it with physiological saline at the time of use. After the administration, the major axis (L mm) and minor axis (W mm) of the tumor were measured using a caliper, and the tumor volume was calculated by the formula: (L×W^2)/2."}, "[2]": {"system": "Mouse colon cancer, Colon26", "assay": "Antitumor effect of compound 4 (Test Example 5)", "conditions": "single i.v. at maximum tolerance dose (compound 4 200 mg/kg as DTX, DTX 100 mg/kg)", "procedure": "Mouse colon cancer, Colon26, maintained by serial subcutaneous subculture in mice was minced into about 2-mm square fragments, and these fragments were subcutaneously transplanted on the dorsal part of female CDF1 mice with a trocar. Seven days after tumor transplantation, the polymer conjugate of the present invention (compound 4) or the control drug (docetaxel, DTX) was intravenously administered once to the mouse tail vein at the maximum tolerance dose. The compound 4 was dissolved in a 5% glucose solution for injection at a level for the use at a dose of 200 mg/kg as DTX. DTX to be used was prepared by dissolving a commercially available Taxotere injection (for the use at a dose of 100 mg/kg use) with a vehicle solution attached to the product and diluting it with physiological saline at the time of use. After the administration, the major axis (L mm) and minor axis (W mm) of the tumor were measured using a caliper, and the tumor volume was calculated by the formula: (L×W^2)/2."}, "[3]": {"system": "Mouse colon cancer, Colon26", "assay": "Antitumor effect of compound 1 (Test Example 3)", "conditions": "i.v. three times (Day 0, 4, 8), 200 mg/kg as PTX", "procedure": "Mouse colon cancer, Colon26, maintained by serial subcutaneous subculture in mice was minced into about 2-mm square fragments, and the fragments were subcutaneously transplanted on the dorsal part of female CDF1 mice with a trocar. Seven days after tumor transplantation, the polymer conjugate of the present invention (compound 1) or the control drug (paclitaxel, PTX) was administered intravenously to the mouse tail vein three times at an interval of 4 days (Day 0, Day 4 and Day 8 in Table 1) at a dose of 200 mg/kg as PTX. The compound 1 was dissolved in a 5% glucose solution for injection and used. PTX was dissolved in anhydrous ethanol and cremophor (manufactured by Sigma Co., Ltd) and diluted with physiological saline at the time of use. After the administration, the major axis (L mm) and minor axis (W mm) of the tumor were measured using a caliper, and the volume of the tumor was calculated by the formula: (L×W^2)/2."}}}
{"smiles": "CC(=O)O[C@@]12CO[C@@H]1C[C@H](O)[C@@]1(C)C(=O)[C@H](O)C3=C(C)[C@@H](OC(=O)[C@H](O)[C@@H](NC(=O)OC(C)(C)C)c4ccccc4)C[C@@](O)([C@@H](OC(=O)c4ccccc4)[C@H]21)C3(C)C", "note": "[DTX, docetaxel]", "values": [{"measurement": "relative tumor volume", "setting": "[1]; Day 0 after administration", "result": 1.00}, {"measurement": "relative tumor volume", "setting": "[1]; Day 2 after administration", "result": 1.61}, {"measurement": "relative tumor volume", "setting": "[1]; Day 4 after administration", "result": 1.57}, {"measurement": "relative tumor volume", "setting": "[1]; Day 7 after administration", "result": 2.30}, {"measurement": "relative tumor volume", "setting": "[1]; Day 10 after administration", "result": 5.85}, {"measurement": "relative tumor volume", "setting": "[2]; Day 0 after administration", "result": 1.00}, {"measurement": "relative tumor volume", "setting": "[2]; Day 3 after administration", "result": 1.17}, {"measurement": "relative tumor volume", "setting": "[2]; Day 5 after administration", "result": 1.17}, {"measurement": "relative tumor volume", "setting": "[2]; Day 7 after administration", "result": 2.17}, {"measurement": "relative tumor volume", "setting": "[2]; Day 10 after administration", "result": 5.75}]}
{"smiles": "CC(=O)O[C@H]1C(=O)[C@@]2(C)[C@H]([C@H](OC(=O)c3ccccc3)[C@]3(O)C[C@H](OC(=O)[C@H](O)[C@@H](NC(=O)c4ccccc4)c4ccccc4)C(C)=C1C3(C)C)[C@]1(OC(C)=O)CO[C@@H]1C[C@@H]2O", "note": "[Paclitaxel, paclitaxel]", "values": [{"measurement": "relative tumor volume", "setting": "[3]; Day 0 after administration initiation", "result": 1}, {"measurement": "relative tumor volume", "setting": "[3]; Day 4 after administration initiation", "result": 3.28}, {"measurement": "relative tumor volume", "setting": "[3]; Day 8 after administration initiation", "result": 4.75}, {"measurement": "relative tumor volume", "setting": "[3]; Day 11 after administration initiation", "result": 4.07}]}
